Measurements as given in patent US4225607A, “Pharmaceutical composition containing a xanthine derivative” (Wulfing; Johann A., priority 1979, dated 1980).
Several values for one entry are separate records, joined by “and”; a condition that tells them apart may be missing. Equal entries are not always repeated.

Assays:
[1] = Blood pressure (BP), initial decrease phase and second increase phase; assay type: in vivo, cat; conditions: Table 3, 125 μg/kg i.v.
[2] = tested on: ischaemic skeletal muscle; assay: Contractility of ischaemic skeletal (calf) muscle, direct stimulation, femoral artery graded occlusion; assay type: in vivo; conditions: cat; for dose range of activity: contractility and pO2 of ischaemic skeletal muscle; for changes in contractility and pO2 in comparison with Compound A (in words): 5-32 mg/kg vs Compound A at 125 μg/kg
Method: Cats of either sex were anaesthetized with urethane/chloralose (120/60 mg/kg i.p.). […] The intraduodenal (i.d.) application of compound was conducted by means of a plastic catheter, which was inserted into the duodenum.
Cats of either sex were anaesthetized as for pO2 measurement. After dissection of the skin of the calf muscles, the sciatic nerve was cut about 3 cm proximal to the knee. The tendon of the calf muscles was cut and connected with an isometric force transducer (SWEMA, SG 3). In order to maintain constant differences and a resting tension of 100 p, the hind limb was fixed at the tibia by means of a clamp. Direct stimulation of the muscles consisted of square wave pulses of 4 msec duration at a frequency of 2 Hz and at a voltage of 50 V. In order to keep the muscles wet and at a normal temperature, the muscles were continuously superfused by means of a NaCl-solution (0.9%, 38° C.). Femoral blood flow was restricted by a graded occlusion of the artery leading to a reduction of contractility by ca. 30%. After having reached a constant level of the contraction force, the vehicle (NaCl and Methocel, respectively) was injected, followed by the test substance.

skeletal muscle = assay: Oxygen tension (pO2) in skeletal muscle (m. gastrocnemius), femoral artery ligation, Pt-needle electrodes; assay type: in vivo, cat; conditions: for effect of Compound A, Δ pO2: 125 μg/kg i.v.
Method: Cats of either sex were anaesthetized with urethane/chloralose (120/60 mg/kg i.p.). In the course of the experiments, pentobarbital was injected intravenously (V. antebrachii ceph.) via a plastic tube. The intraduodenal (i.d.) application of compound was conducted by means of a plastic catheter, which was inserted into the duodenum.
pO2 was measured polarographically using Pt-needle electrodes (modified according to Baumgartl and Lubbers, 1973). The reference electrode, an Ag/AgCl system was sputtered on the glass mantle of the cathode, or it was a separate electrode. The cathode was coated with a polystyrol and a collodium membrane. A constant voltage supply provided a polarizing voltage between 600 and 800 mV. The reducing current was measured by a nano-ampere amplifying meter. The cathode was inserted in the tissue by means of a motor-driven micromanipulator.
A pO2 -electrode was inserted in the muscle tissue (m. gastrocnemius) of both hindlegs of an anaesthetized cat. After recording the pO2 of the normal perfused muscle, the blood flow to one measuring site was restricted by ligating the femoral artery. The pO2 dropped steeply and the tissue became ischaemic. After a few minutes, the pO2 increased and then decreased again. The values were constant after 30 to 60 min. After having reached a constant level of pO2, the vehicle was given, followed by the test substance.
The mean value and the standard deviation were calculated, in order to check the significance of the effect.

LD50 in mice per oral = conditions: mouse, in vivo
[3] = Solubility in water / aqueous media; assay type: physicochemical
[4] = in vivo; cited from earlier work

| Compound | t, time interval to reach initial values, second phase BP increase [1] [min] | contractility of ischaemic skeletal muscle (in words) [2] | dose range of activity [2] [mg/kg] | effect of Compound A, Δ pO2 (skeletal muscle; Table 2, control hind limb, individual cats) | effect of Compound A, Δ pO2 (skeletal muscle; Table 2, hind limb with art. ligation, individual cats) | pO2 of ischaemic skeletal muscle (in words) (skeletal muscle; cat) | LD50 (LD50 in mice per oral) [mg/kg] | solubility in aqueous media (in words) ([3]; aqueous media) | oral toxicity (in words) [4] | changes in contractility and pO2 in comparison with Compound A (in words) [2] | Mean effect of Compound B compared to Compound A (skeletal muscle; Table 2, B at 5 mg/kg vs A at 125 μg/kg, mean) [%] | effect of Compound B, Δ pO2 (skeletal muscle; Table 2, control hind limb, 5 mg/kg i.v., individual cats, 5 mg/kg) [Torr] | contractility (% initial value) ([2]; Table 1, ischaemic muscle, i.d., 12.5 mg/kg) | pO2 (increase) (skeletal muscle; Table 1, ischaemic muscle, cat, i.d., 32 mg/kg) [mmHg] | water solubility (in words) ([3]; water, reason for NT i.v.) |
| --- | --- | --- | --- | --- | --- | --- | --- | --- | --- | --- | --- | --- | --- | --- | --- |
| CCCCn1c(=O)c2c(ncn2CC(C)=O)n(CCCC)c1=O [Compound A, 1,3-di-n-butyl-7-(2-oxopropyl)xanthine] | 32 | distinct increase | 0.05 to 0.125 | 3.8 Torr and 3.5 Torr and 3.4 Torr | 6.2 Torr and 7.3 Torr and 5.2 Torr and 5.6 Torr | distinct increase | > 1000 | only sparingly soluble in aqueous media |  |  |  |  |  |  |  |
| CC(=O)CCCCn1c(=O)c2c(ncn2C)n(C)c1=O [Compound B, pentoxyphylline] |  |  | 5 to 32 |  |  |  |  |  | low oral toxicity | less pronounced in comparison with Compound A | 21.3 | 0.3 |  |  |  |
| CCCCn1c(=O)c2c(ncn2CC(=O)CC)n(CCCC)c1=O [Compound C, 1,3-di-n-butyl-7-(2-oxobutyl)xanthine] |  |  | 5 to 32 |  |  |  |  |  |  | less pronounced in comparison with Compound A |  |  | 22 | 6 | low water solubility |
